Bridge positions count the residues as written; N and C are the ends. Square brackets hold non-standard residues; d marks the D form. Peptide text beside a SMILES is read from it. Nle = CCCC[C@H](N)C(=O)O
What was measured:
Kv1.2 = target: T1, Kv1.2 (Homo sapiens, UniProt P16389); assay: cell-based; settings: for IC50: CHO cells, whole-cell patch clamp, read-out: Potency IC50 (nM) Kv1.2
T1 construct: expressed in transfected cells; host or cells: Chinese Hamster Ovary (CHO)

Kv1.1 = target: T2, Kv1.1 (Homo sapiens, UniProt Q09470); assay: cell-based; settings: for IC50: CHO cells, whole-cell patch clamp, read-out: Potency IC50 (nM) Kv1.1; for Selectivity Kv1.1/Kv1.3: ratio IC50[Kv1.1]/IC50[Kv1.3]
T2 construct: expressed in transfected cells; host or cells: Chinese Hamster Ovary (CHO)
T2 sequence (Q09470 whole entry): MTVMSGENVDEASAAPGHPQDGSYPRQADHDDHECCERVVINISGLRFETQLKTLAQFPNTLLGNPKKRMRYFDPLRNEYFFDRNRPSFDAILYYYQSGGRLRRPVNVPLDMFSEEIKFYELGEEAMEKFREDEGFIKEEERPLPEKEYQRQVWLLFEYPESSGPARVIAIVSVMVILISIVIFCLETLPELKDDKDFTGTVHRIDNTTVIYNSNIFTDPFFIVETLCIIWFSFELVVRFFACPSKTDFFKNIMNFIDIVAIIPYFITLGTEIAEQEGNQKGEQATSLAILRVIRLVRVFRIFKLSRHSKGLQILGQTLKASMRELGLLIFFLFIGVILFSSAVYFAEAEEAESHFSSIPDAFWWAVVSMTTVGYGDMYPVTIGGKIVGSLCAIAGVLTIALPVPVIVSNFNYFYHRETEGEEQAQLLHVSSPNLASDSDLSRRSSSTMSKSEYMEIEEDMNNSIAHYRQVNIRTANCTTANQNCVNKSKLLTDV

Kv1.3 = target: T3, Kv1.3 (Homo sapiens, UniProt P22001); assay: cell-based; settings: CHO cells, whole-cell patch clamp; read-out: Potency IC50 (nM) Kv1.3
T3 construct: expressed in transfected cells; host or cells: Chinese Hamster Ovary (CHO)
T3 sequence (P22001 whole entry): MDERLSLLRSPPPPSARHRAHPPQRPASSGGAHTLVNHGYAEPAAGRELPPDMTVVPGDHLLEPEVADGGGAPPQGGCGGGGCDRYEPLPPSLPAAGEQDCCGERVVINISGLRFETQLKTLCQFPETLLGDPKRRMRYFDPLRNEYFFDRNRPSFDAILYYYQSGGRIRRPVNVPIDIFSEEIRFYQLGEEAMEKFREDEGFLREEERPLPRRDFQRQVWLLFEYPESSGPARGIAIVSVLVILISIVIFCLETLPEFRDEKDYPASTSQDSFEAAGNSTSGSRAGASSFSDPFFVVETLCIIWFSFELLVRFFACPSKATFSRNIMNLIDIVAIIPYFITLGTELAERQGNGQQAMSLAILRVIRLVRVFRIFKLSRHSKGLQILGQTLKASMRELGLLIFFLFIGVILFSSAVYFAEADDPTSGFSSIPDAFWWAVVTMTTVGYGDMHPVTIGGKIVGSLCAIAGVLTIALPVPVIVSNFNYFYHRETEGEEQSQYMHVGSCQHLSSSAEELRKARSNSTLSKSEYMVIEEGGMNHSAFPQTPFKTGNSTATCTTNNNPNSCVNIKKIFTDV

[1] = target: T4, human Kv1.3 voltage-gated K+ channel (Homo sapiens, UniProt P22001); assay: cell-based; settings: inhibition of thallium flux, CHO-DUKX cells with human Kv1.3; read-out: IC50
T4 construct: host or cells: CHO-DUKX
T4 sequence (P22001 whole entry): as above

Kv1.6 = target: T5, Kv1.6 (Homo sapiens, UniProt P17658); assay: cell-based; settings: for IC50: CHO cells, whole-cell patch clamp, read-out: Potency IC50 (nM) Kv1.6; for Selectivity Kv1.6/Kv1.3: ratio IC50[Kv1.6]/IC50[Kv1.3]
T5 construct: expressed in transfected cells; host or cells: Chinese Hamster Ovary (CHO)
T5 sequence (P17658 whole entry): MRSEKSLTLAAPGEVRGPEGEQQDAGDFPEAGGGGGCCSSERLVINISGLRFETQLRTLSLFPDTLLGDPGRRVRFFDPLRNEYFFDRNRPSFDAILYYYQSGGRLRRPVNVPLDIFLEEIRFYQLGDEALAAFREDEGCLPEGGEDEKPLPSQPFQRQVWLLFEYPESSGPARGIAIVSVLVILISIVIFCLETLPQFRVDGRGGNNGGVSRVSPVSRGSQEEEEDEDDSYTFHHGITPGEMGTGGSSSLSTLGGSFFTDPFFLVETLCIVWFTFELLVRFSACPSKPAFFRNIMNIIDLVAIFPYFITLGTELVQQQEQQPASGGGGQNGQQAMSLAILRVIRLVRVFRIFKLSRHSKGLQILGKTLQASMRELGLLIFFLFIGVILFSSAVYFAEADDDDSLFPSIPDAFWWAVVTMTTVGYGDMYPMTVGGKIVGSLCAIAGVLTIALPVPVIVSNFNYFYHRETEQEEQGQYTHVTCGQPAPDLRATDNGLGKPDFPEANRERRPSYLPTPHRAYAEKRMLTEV

Rat whole blood = Rat whole blood (Rattus norvegicus, UniProt P15384)
Chain of Rat whole blood (P15384 whole entry): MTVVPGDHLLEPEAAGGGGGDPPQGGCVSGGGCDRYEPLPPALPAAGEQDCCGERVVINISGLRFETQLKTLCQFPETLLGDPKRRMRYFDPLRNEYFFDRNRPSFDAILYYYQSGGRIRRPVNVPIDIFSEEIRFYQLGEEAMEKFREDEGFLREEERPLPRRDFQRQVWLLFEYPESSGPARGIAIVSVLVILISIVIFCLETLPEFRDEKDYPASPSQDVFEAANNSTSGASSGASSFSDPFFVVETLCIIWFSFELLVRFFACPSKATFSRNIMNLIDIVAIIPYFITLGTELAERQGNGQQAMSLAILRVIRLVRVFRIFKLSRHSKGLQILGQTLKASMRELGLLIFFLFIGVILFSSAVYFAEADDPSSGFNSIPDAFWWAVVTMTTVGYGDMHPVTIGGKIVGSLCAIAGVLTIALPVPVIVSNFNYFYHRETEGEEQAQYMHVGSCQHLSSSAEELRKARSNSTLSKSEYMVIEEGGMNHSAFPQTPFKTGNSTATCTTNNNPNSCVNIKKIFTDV

T1 sequence (P16389 whole entry): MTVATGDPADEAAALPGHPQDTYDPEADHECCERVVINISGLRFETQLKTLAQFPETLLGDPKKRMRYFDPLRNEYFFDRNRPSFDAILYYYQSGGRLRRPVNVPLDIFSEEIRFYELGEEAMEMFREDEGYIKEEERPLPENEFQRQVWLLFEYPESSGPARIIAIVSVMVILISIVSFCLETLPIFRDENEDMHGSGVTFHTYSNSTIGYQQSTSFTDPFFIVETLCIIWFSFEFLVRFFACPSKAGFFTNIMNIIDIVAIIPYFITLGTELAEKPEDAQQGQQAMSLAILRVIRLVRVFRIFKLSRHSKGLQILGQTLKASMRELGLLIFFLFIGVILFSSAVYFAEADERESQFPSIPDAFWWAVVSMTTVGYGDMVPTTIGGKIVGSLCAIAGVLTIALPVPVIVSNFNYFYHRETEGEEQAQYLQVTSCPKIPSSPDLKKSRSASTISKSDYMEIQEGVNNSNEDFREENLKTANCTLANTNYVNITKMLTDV

SMILES	IC50 (Kv1.2)	IC50 (Kv1.1)	Selectivity Kv1.1/Kv1.3 (Kv1.1)	IC50 (Kv1.3)	IC50 [1]	IC50 (Kv1.6)	Selectivity Kv1.6/Kv1.3 (Kv1.6)	IC50 (Rat whole blood)	Selectivity Kv1.2/Kv1.3 (Kv1.2; ratio IC50[Kv1.2]/IC50[Kv1.3])
CC[C@H](C)[C@@H]1NC(=O)[C@H](C)NC(=O)[C@H](CCCCN)NC(=O)[C@H](CC(C)C)NC(=O)[C@@H]2CSSC[C@@H](C(=O)N[C@@H](Cc3ccc(O)cc3)C(=O)N3CCC[C@H]3C(=O)N[C@@H](CCCNC(=N)N)C(=O)O)NC(=O)[C@H](CCCCN)NC(=O)[C@@H]3CSSC[C@H](NC(=O)[C@H](CCC(=O)O)NC(=O)[C@H](C(C)C)NC(=O)[C@H](CO)NC(=O)[C@H](C)NC(=O)[C@H](CO)NC(=O)[C@@H](NC(=O)[C@H](CCCNC(=N)N)NC(=O)[C@H](CCSC)NC(=O)[C@H](CC(=O)O)NC(=O)[C@H](CCSC)NC(=O)[C@@H](N)CCC(N)=O)CSSC[C@H](NC(=O)[C@H](CCCCN)NC(=O)CNC(=O)[C@H](Cc4ccccc4)NC(=O)CNC(=O)[C@H](CCCNC(=N)N)NC(=O)CNC1=O)C(=O)N[C@@H](CCSC)C(=O)N[C@@H](CC(N)=O)C(=O)N[C@@H](CCCCN)C(=O)N[C@@H](CCCCN)C(=O)N3)C(=O)N[C@@H](CCCCN)C(=O)N[C@@H](CCC(N)=O)C(=O)N[C@@H](CCCCN)C(=O)N2 [Compound 2] (H-QMDMRCSASVECKQKCLKAIGRGFGKCMNKKCKCYPR-OH; disulfide 6-27, 12-32, 16-34)	97 nM	> 3000 nM	>2000	1.5 nM	0.25 nM	1810 nM	–	–	–
CC[C@H](C)[C@@H]1NC(=O)[C@H](C)NC(=O)[C@H](CCCCN)NC(=O)[C@H](CC(C)C)NC(=O)[C@@H]2CSSC[C@@H](C(=O)N[C@@H](Cc3ccc(O)cc3)C(=O)N3CCC[C@H]3C(=O)N[C@@H](CCCNC(=N)N)C(=O)O)NC(=O)[C@H](CCCCN)NC(=O)[C@@H]3CSSC[C@H](NC(=O)[C@H](CCC(=O)O)NC(=O)[C@H](C(C)C)NC(=O)[C@H](CO)NC(=O)[C@H](C)NC(=O)[C@H](CO)NC(=O)[C@@H](NC(=O)[C@H](CCCNC(=N)N)NC(=O)[C@H](CCSC)NC(=O)[C@H](CCC(=O)O)NC(=O)[C@H](CCSC)NC(=O)[C@@H](N)CC(N)=O)CSSC[C@H](NC(=O)[C@H](CCCCN)NC(=O)CNC(=O)[C@H](Cc4ccccc4)NC(=O)[C@H]([C@@H](C)CC)NC(=O)[C@H](CO)NC(=O)CNC1=O)C(=O)N[C@@H](CCSC)C(=O)N[C@@H](CC(N)=O)C(=O)N[C@@H](CCCCN)C(=O)N[C@@H](CCCCN)C(=O)N3)C(=O)N[C@@H](CCCCN)C(=O)N[C@@H](CCC(N)=O)C(=O)N[C@@H](CCCCN)C(=O)N2 [Compound 12] (H-NMEMRCSASVECKQKCLKAIGSIFGKCMNKKCKCYPR-OH; disulfide 6-27, 12-32, 16-34)	228 nM	> 3000 nM	>27600	0.11 nM	0.23 nM	> 3000 nM	>27600	–	–
CC[C@H](C)[C@@H]1NC(=O)[C@H](C)NC(=O)[C@H](CCCCN)NC(=O)[C@H](CC(C)C)NC(=O)[C@@H]2CSSC[C@@H](C(=O)N[C@@H](Cc3ccc(O)cc3)C(=O)N3CCC[C@H]3C(=O)N[C@@H](CCCNC(=N)N)C(N)=O)NC(=O)[C@H](CCCCN)NC(=O)[C@@H]3CSSC[C@H](NC(=O)[C@H](CCC(=O)O)NC(=O)[C@H](C(C)C)NC(=O)[C@H](CO)NC(=O)[C@H](C)NC(=O)[C@H](CO)NC(=O)[C@@H](NC(=O)[C@H](CCCNC(=N)N)NC(=O)[C@H](CCSC)NC(=O)[C@H](CC(=O)O)NC(=O)[C@H](CCSC)NC(=O)[C@@H](N)CC(N)=O)CSSC[C@H](NC(=O)[C@H](CCCCN)NC(=O)CNC(=O)[C@H](Cc4ccccc4)NC(=O)[C@H]([C@@H](C)CC)NC(=O)[C@H](CO)NC(=O)CNC1=O)C(=O)N[C@@H](CCSC)C(=O)N[C@@H](CC(N)=O)C(=O)N[C@@H](CCCCN)C(=O)N[C@@H](CCCCN)C(=O)N3)C(=O)N[C@@H](CCCCN)C(=O)N[C@@H](CCC(N)=O)C(=O)N[C@@H](CC(C)C)C(=O)N2 [Compound 18] (H-NMDMRCSASVECKQLCLKAIGSIFGKCMNKKCKCYPR-NH2; disulfide 6-27, 12-32, 16-34)	256 nM	> 3000 nM	>12700	0.24 nM	0.19 nM	> 3000 nM	>12700	–	–
CCCC[C@@H]1NC(=O)[C@@H]2CSSC[C@H](NC(=O)[C@H](CCCNC(=N)N)NC(=O)[C@H](CCCC)NC(=O)[C@H](CC(=O)O)NC(=O)[C@H](CCCC)NC(=O)[C@@H](N)CO)C(=O)N[C@@H](CO)C(=O)N[C@@H](C)C(=O)N[C@@H](CO)C(=O)N[C@@H](C(C)C)C(=O)N[C@@H](CCC(=O)O)C(=O)N[C@H]3CSSC[C@H](NC(=O)[C@H](CCCCN)NC(=O)[C@H](CCCCN)NC(=O)[C@H](CC(N)=O)NC1=O)C(=O)N[C@@H](CCCCN)C(=O)N[C@H](C(=O)N[C@@H](Cc1ccc(O)cc1)C(=O)N1CCC[C@H]1C(=O)N[C@@H](CCCNC(=N)N)C(N)=O)CSSC[C@H](NC(=O)[C@H](CCCCN)NC(=O)[C@H](CCC(N)=O)NC(=O)[C@H](CCCCN)NC3=O)C(=O)N[C@@H](CC(C)C)C(=O)N[C@@H](CCCCN)C(=O)N[C@@H](C)C(=O)N[C@@H]([C@@H](C)CC)C(=O)NCC(=O)N[C@@H](CO)C(=O)N[C@@H]([C@@H](C)CC)C(=O)N[C@@H](Cc1ccccc1)C(=O)NCC(=O)N[C@@H](CCCCN)C(=O)N2 [Compound 66] (H-S[Nle]D[Nle]RCSASVECKQKCLKAIGSIFGKC[Nle]NKKCKCYPR-NH2; disulfide 6-27, 12-32, 16-34)	–	–	–	0.18 nM	0.12 nM	–	–	≤ 1 nM	–
CCCC[C@@H]1NC(=O)[C@@H]2CSSC[C@H](NC(=O)[C@H](CCCNC(=N)N)NC(=O)[C@H](CCCC)NC(=O)[C@H](CC(=O)O)NC(=O)[C@H](CCCC)NC(=O)[C@@H](N)C(C)C)C(=O)N[C@@H](CO)C(=O)N[C@@H](C)C(=O)N[C@@H](CO)C(=O)N[C@@H](C(C)C)C(=O)N[C@@H](CCC(=O)O)C(=O)N[C@H]3CSSC[C@H](NC(=O)[C@H](CCCCN)NC(=O)[C@H](CCCCN)NC(=O)[C@H](CC(N)=O)NC1=O)C(=O)N[C@@H](CCCCN)C(=O)N[C@H](C(=O)N[C@@H](Cc1ccc(O)cc1)C(=O)N1CCC[C@H]1C(=O)N[C@@H](CCCNC(=N)N)C(N)=O)CSSC[C@H](NC(=O)[C@H](CCCCN)NC(=O)[C@H](CCC(N)=O)NC(=O)[C@H](CCCCN)NC3=O)C(=O)N[C@@H](CC(C)C)C(=O)N[C@@H](CCCCN)C(=O)N[C@@H](C)C(=O)N[C@@H]([C@@H](C)CC)C(=O)NCC(=O)N[C@@H](CO)C(=O)N[C@@H]([C@@H](C)CC)C(=O)N[C@@H](Cc1ccccc1)C(=O)NCC(=O)N[C@@H](CCCCN)C(=O)N2 [Compound 67] (H-V[Nle]D[Nle]RCSASVECKQKCLKAIGSIFGKC[Nle]NKKCKCYPR-NH2; disulfide 6-27, 12-32, 16-34)	–	–	–	0.32 nM	0.12 nM	–	–	≤ 1 nM	–
CC[C@H](C)[C@@H]1NC(=O)[C@@H](NC(=O)[C@H](CO)NC(=O)[C@@H](N)CCCNC(=N)N)CSSC[C@@H](C(=O)O)NC(=O)[C@H]([C@@H](C)O)NC(=O)CNC(=O)[C@@H]2CSSC[C@@H]3NC(=O)[C@H](CCC(N)=O)NC(=O)[C@H](Cc4ccccc4)NC(=O)[C@H](C)NC(=O)[C@H]([C@@H](C)O)NC(=O)[C@H](CSSC[C@H](NC(=O)[C@H](Cc4ccccc4)NC(=O)[C@H](CO)NC(=O)[C@H](CC(C)C)NC(=O)[C@H](CCCNC(=N)N)NC(=O)[C@H](Cc4ccc(O)cc4)NC(=O)[C@H](CCCCN)NC(=O)[C@H](CCSC)NC(=O)[C@H](CO)NC(=O)[C@H](Cc4cnc[nH]4)NC(=O)[C@H](CCCCN)NC3=O)C(=O)N[C@@H](CCCNC(=N)N)C(=O)N[C@@H](CCCCN)C(=O)N[C@@H]([C@@H](C)O)C(=O)N2)NC(=O)[C@H](CCCNC(=N)N)NC(=O)[C@H](CO)NC(=O)[C@H](CCCCN)NC(=O)[C@@H]2CCCN2C(=O)[C@H]([C@@H](C)CC)NC(=O)[C@H]([C@@H](C)O)NC(=O)[C@H](CC(=O)O)NC1=O [ShK, reference compound]	11 nM	–	–	–	–	0.19 nM	–	–	–
CC[C@H](C)[C@H](NC(=O)[C@H](C)NC(=O)[C@H](C)NC(=O)[C@H](C)N)C(=O)N[C@@H](CO)C(=O)N[C@H]1CSSC[C@@H]2NC(=O)[C@H](CCCCN)NC(=O)CNC(=O)[C@H](CC(N)=O)NC(=O)[C@H](CCCCN)NC(=O)[C@@H]3CSSC[C@@H](C(N)=O)NC(=O)[C@H](Cc4ccc(O)cc4)NC(=O)[C@H](Cc4ccc(O)cc4)NC(=O)[C@@H]4CSSC[C@H](NC(=O)[C@H](CCCCN)NC(=O)[C@@H]5CCCN5C(=O)[C@@H]5CCCN5C(=O)[C@H](CSSC[C@H](NC(=O)[C@H](CCCCN)NC(=O)[C@H](CCCNC(=N)N)NC(=O)[C@H](CC(N)=O)NC(=O)[C@H](CCSC)NC2=O)C(=O)N[C@@H](CCCCN)C(=O)N4)NC(=O)[C@H](CCC(=O)O)NC(=O)[C@@H]2CCCN2C(=O)[C@H](CO)NC(=O)CNC(=O)[C@H](C(C)C)NC1=O)C(=O)N[C@@H](CCCNC(=N)N)C(=O)N[C@@H](C)C(=O)N[C@@H](CCC(N)=O)C(=O)NCC(=O)N3 [Vm24, reference compound]	4.7 nM	0.097 nM	0.65	0.15 nM	–	21 nM	139	–	31
